What was measured:
Experiment in all cases: radiometric filter-binding kinase assay, Kinase HotSpot
Settings in all cases: compound 0.5 µM; ATP 10 µM
[1] = target: MAPKAPK2 (human) (UniProt P49137)
[2] = target: CAMK2B (human) (UniProt Q13554)
[3] = target: PASK (human) (UniProt Q96RG2)
[4] = target: MAP4K4 (human) (UniProt O95819)
[5] = target: MAP2K2 (human) (UniProt P36507)
[6] = target: EGFR (human) (UniProt P00533)
[7] = target: RPS6KA2 KD1 KD2 (human) (UniProt Q15349)
[8] = target: MUSK (human) (UniProt O15146)
[9] = target: TSSK1B (human) (UniProt Q9BXA7)
[10] = target: TEK (human) (UniProt Q02763)
Chain of TEK (human) (Q02763 whole entry, looked up): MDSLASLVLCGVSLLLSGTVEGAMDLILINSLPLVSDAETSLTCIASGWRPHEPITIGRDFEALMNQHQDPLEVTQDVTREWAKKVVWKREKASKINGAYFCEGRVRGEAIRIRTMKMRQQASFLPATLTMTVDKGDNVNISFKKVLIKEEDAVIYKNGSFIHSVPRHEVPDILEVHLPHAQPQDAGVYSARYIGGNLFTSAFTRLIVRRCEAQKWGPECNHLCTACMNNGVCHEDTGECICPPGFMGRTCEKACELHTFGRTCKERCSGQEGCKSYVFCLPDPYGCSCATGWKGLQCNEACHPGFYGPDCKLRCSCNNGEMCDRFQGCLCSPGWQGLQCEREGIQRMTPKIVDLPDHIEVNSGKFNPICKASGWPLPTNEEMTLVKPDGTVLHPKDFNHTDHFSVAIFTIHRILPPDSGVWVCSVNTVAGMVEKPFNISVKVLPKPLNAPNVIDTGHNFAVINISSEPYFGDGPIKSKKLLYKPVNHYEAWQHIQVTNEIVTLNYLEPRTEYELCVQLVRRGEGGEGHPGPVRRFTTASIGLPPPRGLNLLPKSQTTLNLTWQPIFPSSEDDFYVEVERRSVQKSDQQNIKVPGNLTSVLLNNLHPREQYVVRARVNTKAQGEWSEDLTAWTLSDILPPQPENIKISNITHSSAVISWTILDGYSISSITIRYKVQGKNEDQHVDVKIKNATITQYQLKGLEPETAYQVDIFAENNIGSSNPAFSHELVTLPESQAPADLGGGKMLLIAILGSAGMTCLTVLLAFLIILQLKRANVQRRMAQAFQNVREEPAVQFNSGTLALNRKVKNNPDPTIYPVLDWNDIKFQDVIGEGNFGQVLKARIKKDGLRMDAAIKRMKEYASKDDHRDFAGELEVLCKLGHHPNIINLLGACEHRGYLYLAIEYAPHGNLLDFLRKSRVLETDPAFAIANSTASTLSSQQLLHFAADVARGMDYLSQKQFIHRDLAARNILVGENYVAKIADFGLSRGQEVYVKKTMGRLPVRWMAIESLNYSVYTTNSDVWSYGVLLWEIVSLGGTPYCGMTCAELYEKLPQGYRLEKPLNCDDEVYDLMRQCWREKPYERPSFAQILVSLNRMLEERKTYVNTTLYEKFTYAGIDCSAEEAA

[11] = target: MATK (human) (UniProt P42679)
[12] = target: CDK6 CCND3 (human) (UniProt P30281+Q00534)
[13] = target: SGK3 (human) (UniProt Q96BR1)
[14] = target: CDK3 CCNE1 (human) (UniProt Q00526+P24864)
[15] = target: RET (human) (UniProt P07949)
[16] = target: MINK1 (human) (UniProt Q8N4C8)
[17] = target: CSF1R (human) (UniProt P07333)
[18] = target: FES (human) (UniProt P07332)
[19] = target: PRKCI (human) (UniProt P41743)
[20] = target: PRKCA (human) (UniProt P17252)
[21] = target: OXSR1 (human) (UniProt O95747)
[22] = target: STK3 (human) (UniProt Q13188)
[23] = target: PIM2 (human) (UniProt Q9P1W9)
[24] = target: ULK2 (human) (UniProt Q8IYT8)
Chain of ULK2 (human) (Q8IYT8 whole entry, looked up): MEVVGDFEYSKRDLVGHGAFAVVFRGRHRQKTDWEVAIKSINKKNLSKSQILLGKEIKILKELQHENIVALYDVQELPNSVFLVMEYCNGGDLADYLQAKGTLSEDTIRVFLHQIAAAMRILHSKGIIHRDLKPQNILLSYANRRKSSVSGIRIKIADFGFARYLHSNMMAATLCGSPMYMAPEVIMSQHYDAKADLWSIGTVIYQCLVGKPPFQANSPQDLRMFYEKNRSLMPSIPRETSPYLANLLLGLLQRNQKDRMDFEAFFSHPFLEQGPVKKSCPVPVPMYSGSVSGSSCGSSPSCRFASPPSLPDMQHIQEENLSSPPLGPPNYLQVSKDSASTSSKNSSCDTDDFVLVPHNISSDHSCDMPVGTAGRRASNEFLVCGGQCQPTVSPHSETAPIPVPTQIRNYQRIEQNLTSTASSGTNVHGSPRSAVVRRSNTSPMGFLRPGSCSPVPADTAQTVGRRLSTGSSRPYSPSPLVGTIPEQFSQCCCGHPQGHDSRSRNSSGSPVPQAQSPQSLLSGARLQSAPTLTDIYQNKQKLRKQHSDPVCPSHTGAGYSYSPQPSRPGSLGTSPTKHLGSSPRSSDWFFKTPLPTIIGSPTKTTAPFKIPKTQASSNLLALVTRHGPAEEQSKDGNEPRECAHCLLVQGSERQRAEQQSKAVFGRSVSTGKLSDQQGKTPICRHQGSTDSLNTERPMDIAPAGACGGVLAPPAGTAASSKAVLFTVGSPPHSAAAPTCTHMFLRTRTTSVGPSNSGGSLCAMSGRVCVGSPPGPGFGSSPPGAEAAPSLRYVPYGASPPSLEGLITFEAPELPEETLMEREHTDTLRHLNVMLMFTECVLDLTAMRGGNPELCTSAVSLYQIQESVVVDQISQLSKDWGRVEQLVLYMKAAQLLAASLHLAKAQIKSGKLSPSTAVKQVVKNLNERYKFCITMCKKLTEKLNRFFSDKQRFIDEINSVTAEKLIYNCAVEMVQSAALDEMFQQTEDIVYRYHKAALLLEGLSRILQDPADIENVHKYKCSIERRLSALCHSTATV

[25] = target: SIK2 (human) (UniProt Q9H0K1)
[26] = target: EPHA5 (human) (UniProt P54756)
Chain of EPHA5 (human) (P54756 whole entry, looked up): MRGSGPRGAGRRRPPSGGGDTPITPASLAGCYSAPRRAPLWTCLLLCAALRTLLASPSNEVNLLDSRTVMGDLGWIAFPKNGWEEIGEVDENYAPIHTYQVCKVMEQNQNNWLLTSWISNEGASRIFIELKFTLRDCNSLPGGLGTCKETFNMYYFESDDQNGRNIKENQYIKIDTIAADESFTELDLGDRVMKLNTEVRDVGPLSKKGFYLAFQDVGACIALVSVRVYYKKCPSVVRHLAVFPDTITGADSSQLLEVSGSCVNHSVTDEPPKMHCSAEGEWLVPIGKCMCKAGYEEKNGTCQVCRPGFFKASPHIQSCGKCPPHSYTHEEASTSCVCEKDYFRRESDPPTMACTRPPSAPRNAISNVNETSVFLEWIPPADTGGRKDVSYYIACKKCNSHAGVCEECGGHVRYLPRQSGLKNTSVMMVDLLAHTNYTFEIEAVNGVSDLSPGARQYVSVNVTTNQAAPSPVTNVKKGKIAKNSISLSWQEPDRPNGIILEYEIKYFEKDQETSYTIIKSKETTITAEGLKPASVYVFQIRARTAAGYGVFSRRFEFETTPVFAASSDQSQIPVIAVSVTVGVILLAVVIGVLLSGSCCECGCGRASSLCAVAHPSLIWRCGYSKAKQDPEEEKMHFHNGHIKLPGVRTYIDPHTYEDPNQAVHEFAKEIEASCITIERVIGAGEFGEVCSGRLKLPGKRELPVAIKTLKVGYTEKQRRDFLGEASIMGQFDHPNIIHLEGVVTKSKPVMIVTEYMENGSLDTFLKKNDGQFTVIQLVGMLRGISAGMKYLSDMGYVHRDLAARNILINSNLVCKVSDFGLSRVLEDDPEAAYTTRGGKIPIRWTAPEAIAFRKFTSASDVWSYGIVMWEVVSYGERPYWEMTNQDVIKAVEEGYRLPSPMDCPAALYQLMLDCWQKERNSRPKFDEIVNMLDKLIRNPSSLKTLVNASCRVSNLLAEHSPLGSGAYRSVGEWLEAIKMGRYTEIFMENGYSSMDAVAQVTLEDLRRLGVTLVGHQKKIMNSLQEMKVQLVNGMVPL

[27] = target: RPS6KA1 KD1 KD2 (human) (UniProt Q15418)
[28] = target: PIM3 (human) (UniProt Q86V86)
[29] = target: BRSK1 (human) (UniProt Q8TDC3)
[30] = target: MAP3K10 (human) (UniProt Q02779)
[31] = target: RIPK2 (human) (UniProt O43353)
[32] = target: TYRO3 (human) (UniProt Q06418)
[33] = target: MST1R (human) (UniProt Q04912)
[34] = target: MAPK10 (human) (UniProt P53779)
[35] = target: NEK1 (human) (UniProt Q96PY6)
Chain of NEK1 (human) (Q96PY6 whole entry, looked up): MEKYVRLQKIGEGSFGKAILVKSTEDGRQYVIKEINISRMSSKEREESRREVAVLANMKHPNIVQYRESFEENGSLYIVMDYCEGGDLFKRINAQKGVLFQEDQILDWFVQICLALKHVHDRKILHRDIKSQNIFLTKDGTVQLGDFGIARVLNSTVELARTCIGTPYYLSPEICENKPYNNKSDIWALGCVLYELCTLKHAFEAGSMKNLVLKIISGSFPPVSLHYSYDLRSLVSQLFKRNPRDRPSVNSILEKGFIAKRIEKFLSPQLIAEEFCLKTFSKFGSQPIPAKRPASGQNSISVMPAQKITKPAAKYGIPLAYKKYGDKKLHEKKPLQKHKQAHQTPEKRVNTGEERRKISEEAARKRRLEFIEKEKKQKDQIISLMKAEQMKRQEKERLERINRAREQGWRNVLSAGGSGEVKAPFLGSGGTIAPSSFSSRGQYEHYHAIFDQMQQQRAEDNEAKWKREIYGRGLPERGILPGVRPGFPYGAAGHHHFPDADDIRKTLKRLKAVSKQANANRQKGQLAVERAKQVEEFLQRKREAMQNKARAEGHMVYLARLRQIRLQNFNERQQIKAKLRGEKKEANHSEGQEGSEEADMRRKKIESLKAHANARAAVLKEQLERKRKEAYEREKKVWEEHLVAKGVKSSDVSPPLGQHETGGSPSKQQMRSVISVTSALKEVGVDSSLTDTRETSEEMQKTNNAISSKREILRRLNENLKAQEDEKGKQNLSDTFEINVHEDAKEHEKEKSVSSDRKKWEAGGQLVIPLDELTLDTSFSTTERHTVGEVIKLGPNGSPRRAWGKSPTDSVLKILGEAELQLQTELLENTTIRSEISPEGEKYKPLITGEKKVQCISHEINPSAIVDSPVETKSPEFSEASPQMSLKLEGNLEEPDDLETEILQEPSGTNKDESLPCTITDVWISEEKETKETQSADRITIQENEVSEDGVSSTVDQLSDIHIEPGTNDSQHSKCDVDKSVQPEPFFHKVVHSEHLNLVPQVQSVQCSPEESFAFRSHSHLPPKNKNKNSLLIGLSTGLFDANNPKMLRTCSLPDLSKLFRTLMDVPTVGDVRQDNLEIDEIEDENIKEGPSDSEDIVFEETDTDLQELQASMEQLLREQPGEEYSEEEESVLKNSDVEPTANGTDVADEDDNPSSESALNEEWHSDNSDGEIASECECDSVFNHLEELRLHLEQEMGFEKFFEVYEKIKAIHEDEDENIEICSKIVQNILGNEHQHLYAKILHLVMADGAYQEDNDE

[36] = target: ITK (human) (UniProt Q08881)
Chain of ITK (human) (Q08881 whole entry, looked up): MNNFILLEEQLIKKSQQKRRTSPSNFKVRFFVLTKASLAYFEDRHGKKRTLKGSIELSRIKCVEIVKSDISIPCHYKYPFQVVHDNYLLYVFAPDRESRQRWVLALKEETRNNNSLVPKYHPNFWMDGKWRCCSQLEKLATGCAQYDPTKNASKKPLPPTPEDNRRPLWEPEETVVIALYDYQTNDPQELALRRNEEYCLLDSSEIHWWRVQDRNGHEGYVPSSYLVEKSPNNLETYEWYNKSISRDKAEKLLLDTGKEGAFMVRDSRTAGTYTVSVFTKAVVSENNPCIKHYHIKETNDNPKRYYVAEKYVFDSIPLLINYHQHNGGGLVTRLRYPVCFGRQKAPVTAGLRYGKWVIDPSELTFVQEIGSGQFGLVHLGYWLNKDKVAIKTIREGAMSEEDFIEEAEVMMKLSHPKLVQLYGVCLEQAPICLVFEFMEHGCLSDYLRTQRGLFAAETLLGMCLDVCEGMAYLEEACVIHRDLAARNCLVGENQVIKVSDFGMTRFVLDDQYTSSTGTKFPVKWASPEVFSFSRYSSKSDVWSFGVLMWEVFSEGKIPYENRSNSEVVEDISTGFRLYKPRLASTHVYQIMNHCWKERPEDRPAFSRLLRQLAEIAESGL

[37] = target: JAK1 JH1 catalytic (human) (UniProt P23458)
[38] = target: IKBKB (human) (UniProt O14920)
[39] = target: GSK3A (human) (UniProt P49840)
[40] = target: PRKG2 (human) (UniProt Q13237)
[41] = target: CAMK4 (human) (UniProt Q16566)
[42] = target: MAP4K5 (human) (UniProt Q9Y4K4)

O=C(Nc1cccc(Nc2nccc(Nc3cccc(C(F)(F)F)c3)n2)c1)C1CC1
residual activity [1]: 102% | residual activity [2]: 102% | residual activity [3]: 106% | residual activity [4]: 92.4% | residual activity [5]: 89.2% | residual activity [6]: 87.6% | residual activity [7]: 101% | residual activity [8]: 101% | residual activity [9]: 100% | residual activity [10]: 101% | residual activity [11]: 101% | residual activity [12]: 98.5% | residual activity [13]: 111% | residual activity [14]: 98.1% | residual activity [15]: 88.6% | residual activity [16]: 108% | residual activity [17]: 63.1% | residual activity [18]: 94.3% | residual activity [19]: 91.3% | residual activity [20]: 71.9% | residual activity [21]: 78.9% | residual activity [22]: 96% | residual activity [23]: 112% | residual activity [24]: 107% | residual activity [25]: 103% | residual activity [26]: 96.2% | residual activity [27]: 92.8% | residual activity [28]: 106% | residual activity [29]: 97.1% | residual activity [30]: 96.4% | residual activity [31]: 81.6% | residual activity [32]: 93.8% | residual activity [33]: 92.6% | residual activity [34]: 99% | residual activity [35]: 82.8% | residual activity [36]: 101% | residual activity [37]: 74% | residual activity [38]: 97.9% | residual activity [39]: 95% | residual activity [40]: 96.2% | residual activity [41]: 97.9% | residual activity [42]: 94.9%

O=C1Nc2ccc(Cl)cc2/C1=C/c1cc(Cl)c(O)c(Cl)c1
residual activity [1]: 100% | residual activity [2]: 92% | residual activity [3]: 70% | residual activity [4]: 4.48% | residual activity [5]: 82% | residual activity [6]: 93.5% | residual activity [7]: 71.9% | residual activity [8]: 65.5% | residual activity [9]: 88.2% | residual activity [10]: 93% | residual activity [11]: 82.2% | residual activity [12]: 94.1% | residual activity [13]: 98.6% | residual activity [14]: 85.4% | residual activity [15]: 80.4% | residual activity [16]: 22.4% | residual activity [17]: 77.9% | residual activity [18]: 93.7% | residual activity [19]: 94.1% | residual activity [20]: 105% | residual activity [21]: 91.6% | residual activity [22]: 31.6% | residual activity [23]: 48.6% | residual activity [24]: 101% | residual activity [25]: 95% | residual activity [26]: 99.4% | residual activity [27]: 48.4% | residual activity [28]: 14.5% | residual activity [29]: 81.3% | residual activity [30]: 86.8% | residual activity [31]: 50.2% | residual activity [32]: 94.9% | residual activity [33]: 94.8% | residual activity [34]: 98.8% | residual activity [35]: 81.5% | residual activity [36]: 91.8% | residual activity [37]: 103% | residual activity [38]: 93.6% | residual activity [39]: 76.1% | residual activity [40]: 97% | residual activity [41]: 96.8% | residual activity [42]: 75.9%

Cc1[nH]c(/C=C2\C(=O)Nc3ccc(S(=O)(=O)N(C)c4cccc(Cl)c4)cc32)c(C)c1C(=O)N1CCN(C)CC1
residual activity [1]: 104% | residual activity [2]: 89.8% | residual activity [3]: 106% | residual activity [4]: 40.9% | residual activity [5]: 99.5% | residual activity [6]: 97.1% | residual activity [7]: 75.4% | residual activity [8]: 84.2% | residual activity [9]: 21.7% | residual activity [10]: 90.8% | residual activity [11]: 100% | residual activity [12]: 72.8% | residual activity [13]: 101% | residual activity [14]: 89.4% | residual activity [15]: 23% | residual activity [16]: 68.7% | residual activity [17]: 64.9% | residual activity [18]: 96% | residual activity [19]: 98.7% | residual activity [20]: 91.9% | residual activity [21]: 116% | residual activity [22]: 78.6% | residual activity [23]: 103% | residual activity [24]: 16.8% | residual activity [25]: 86% | residual activity [26]: 96.4% | residual activity [27]: 54.4% | residual activity [28]: 106% | residual activity [29]: 101% | residual activity [30]: 74% | residual activity [31]: 92.7% | residual activity [32]: 34.7% | residual activity [33]: 103% | residual activity [34]: 99% | residual activity [35]: 23.5% | residual activity [36]: 87.4% | residual activity [37]: 68% | residual activity [38]: 107% | residual activity [39]: 98.4% | residual activity [40]: 104% | residual activity [41]: 96.2% | residual activity [42]: 5.06%
